The values that follow are results of earlier work, collected in US20230062279A1, “PHARMACEUTICAL COMPOSITIONS OF BORTEZOMIB” (EXTROVIS AG, priority 2021, published 2023).

Where two headings read alike, the source gives them in different places.

On to `CC(C)C[C@H](NC(=O)[C@H](Cc1ccccc1)NC(=O)c1cnccn1)B(O)O` [bortezomib, [(1R)-3-methyl-1-[[(2S)-1-oxo-3-phenyl-2-[(pyrazinylcarbonyl)amino]propyl]amino]butyl] boronic acid], for which the degradation result is reported as “about 20%” (PEG 300:Ethanol:Water (40:10:50), 25° C., 24 hours); 20% (PG:Ethanol:Water, 25° C., 8 months); 20% (ethanol and normal saline 2:98, pH 2.8, 25° C., 1 month).
